The record followed here is the METLIN SMRT retention time set (Domingo-Almenara et al. 2019).

A short description of the data set: gradient 5% acetonitrile 3 min, to 50% in 2 min, to 85% in 15 min, held 3 min, 100 µL/min. The settings on record: column: Zorbax Extend-C18 2.1 x 50 mm; eluents: water / acetonitrile, 0.1% formic acid. The procedure, abridged:
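Pure standards were run in mixtures of ~100 molecules by HPLC coupled to a quadrupole time-of-flight mass spectrometer. The column was a Zorbax Extend-C18 (2.1 × 50 mm, 1.8 μm) at 100 μL/min, with water and acetonitrile each containing 0.1% formic acid, in positive and negative ionization mode. Dead and dwell volumes were 40 μL and 900 μL. Retention time was taken from computationally picked adduct peaks, each manually inspected, with data collected over 3 months.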
`CCOc1cc(=O)c(C(=O)N2CCC(C(N)=O)CC2)nn1-c1ccc(C)cc1` displayed an RP-LC retention time of 610 s.

Compound `CC(C)N1C(=O)C2(CCCCC2)C1C(=O)N1CCOCC1` (stereo not drawn) had an RP-LC retention time of 633 s. `Cc1ccc2[nH]cc(CCN3CC(C(=O)Nc4ccc(Br)cc4)CC3=O)c2c1` (stereo not drawn) had an RP-LC retention time of 916 s. The result for `Cc1noc(C2CN(C(=O)c3cnn(C)c3)CC23CCCC3)n1` (stereo not drawn) reads 684 s; that for `CCN(CC)CCCNc1ncnc2c1cnn2-c1cccc(Cl)c1`, 648 s. The result for `CCc1csc(-c2ccc(N3CCN(C(=O)c4ccc(OC)c(OC)c4)CC3)nc2)n1` reads 839 s; that for `CCCOc1nc2ccccc2nc1N1CCCC(C(=O)NCc2ccccc2C)C1` (stereo not drawn), 1240 s. The result for `O=C(Cn1c(=O)c2cccn2c2ccc(F)cc21)NCCC1=CCCCC1` reads 952 s; that for `Cc1ccc(C)c(NC(=O)Cn2cnc3nc(N4CCCC(C(=O)NC5CC5)C4)sc3c2=O)c1` (stereo not drawn), 683 s.

As to `Cc1nnsc1C(=O)Nc1ccc([N+](=O)[O-])cc1C(F)(F)F`, the RP-LC retention time came out at 868 s.

The compound `CCOC(=O)c1noc2nc(C)nc(Nc3cccc(Cl)c3)c12` showed an RP-LC retention time of 1200 s.

Take `O=C(CCn1cnc2cc(-c3noc(-c4cccs4)n3)ccc21)N1CCOCC1`: the RP-LC retention time is 672 s. In the case of `CN(C)CCNC(=O)c1ccc(-c2ccc(N3CCCCCC3)nc2)cc1` it was 560 s; in that of `CC(C)N1C(=O)CSc2cnn(CC(=O)NC3CCCC3)c(=O)c21`, 688 s. Compound `Cc1cc(C)c2c(N3CCOCC3)nc(C(=O)NCCC(C)C)nc2n1` yielded an RP-LC retention time of 648 s. `COCCn1c(C)cc(O)c(C(c2ccc(OC)cc2OC)N2CCCCC2)c1=O` (stereo not drawn): the RP-LC retention time came to 688 s. In the case of `CC(=O)N1CCC(CC(=O)N(C)CC2(C)CCOCC2)CC1` it was 594 s; in that of `CC(C)(C)NC(=O)N1CC(n2cc(C(=O)N3CCOCC3)nn2)C1`, 646 s. The result for `CCn1c(=O)c(N2CCN(C(=O)Nc3ccccc3Br)CC2)nc2cccnc21` reads 991 s; that for `CCOC(=O)c1c(S(=O)(=O)N2CCC(C(=O)Nc3ccccc3F)CC2)c(C)n(C)c1C`, 851 s. In the case of `Clc1ccc(-c2ccc(CNCC3CCCO3)o2)cc1` (stereo not drawn) it was 688 s; in that of `CCCN(CCC)CCc1ccc(O)c(O)c1`, 602 s. The compound `CCn1cc(CCNC(=O)c2ccccc2C(F)(F)F)c2cccnc21` showed an RP-LC retention time of 740 s.

On to `Cc1ccc(C)c(N2CCN(C(=O)C3CCN(c4cnc5nccnc5c4)CC3)CC2)c1`, for which the RP-LC retention time is 907 s. The result for `Cc1cc(S(=O)(=O)N2CCC3(CC2)CCC(O)(CN2CCCC2)CC3)ccc1Cl` reads 706 s; that for `Cc1ccc(F)c(NS(=O)(=O)c2cc3n(c2)CCCNC3=O)c1`, 654 s. For `CCCc1ccc(S(=O)(=O)N2CCC(c3nc4ccncc4n3CCOC)C2)cc1` (stereo not drawn), the RP-LC retention time amounted to 610 s. The result for `O=C(NCc1cccc(Br)c1)c1cn2ccccc2n1` reads 730 s; that for `Cn1nc(C(=O)N2CCCN(c3cc(-c4ccc(Cl)cc4)[nH]n3)CC2)c2ccccc21`, 805 s.

Consider `CCn1ncn2cc(S(=O)(=O)NC(C)c3ccccc3)cc2c1=O` (stereo not drawn), for which the RP-LC retention time worked out at 838 s. In the case of `CCOCCCNC(=O)C1CCCN(c2ncc(-c3ccc(F)cc3)cn2)C1` (stereo not drawn) it was 886 s; in that of `O=C(CN1CCCC1=O)NCc1ccc(F)c(Cl)c1`, 667 s; in that of `O=C(O)CCc1conc1-c1cccc(F)c1`, 729 s.

Regarding `Cc1ccc(Cn2c(N3CCCC(C(=O)NCCc4cccs4)C3)nc3ccsc3c2=O)cc1` (stereo not drawn), the RP-LC retention time was found to be 1000 s.

As to `O=C(O)c1nnn(-c2ccc(Cl)cc2)c1-c1ccncc1`, the RP-LC retention time is 663 s.

In turn, `Cc1cc(C(=O)N2CCC(c3cc(N)on3)CC2)no1` registered an RP-LC retention time of 625 s. In the case of `O=C(Nc1ccc2c(c1)OCCO2)c1cn2c(n1)COCC2` it was 606 s; in that of `O=S1(=O)C[C@H](N2CCN(c3ncccn3)CC2)[C@@H](S(=O)(=O)c2ccc(F)cc2)C1`, 772 s; in that of `Cc1ccc(C(=O)NCCn2c(=O)n(Cc3ccccc3)c3cccnc32)s1`, 805 s.

`COc1cccc(-c2noc(Cn3c(=O)n(-c4ccccc4C)c(=O)c4sccc43)n2)c1`: the RP-LC retention time worked out at 978 s.

In the case of `O=C(NCc1ccc(F)cc1F)C1CCN(c2cn[nH]c(=O)c2)CC1`, the RP-LC retention time is 639 s. The result for `CCOC(=O)c1ccc(NC(=O)N2CCN(c3nc4ccccc4n3C)CC2)cc1` reads 658 s.

For `COC(=O)c1cc(C)nc2c1c(=O)n(Cc1c(F)cccc1Cl)c(=O)n2C`, the RP-LC retention time was determined as 965 s. In the case of `CC(C)N1CCC(F)(c2nc(-c3ccccc3)no2)CC1` it was 657 s; in that of `O=c1n(Cc2ccc(Cl)cc2)nc2c(S(=O)(=O)N3CCc4ccccc4C3)cccn12`, 1020 s; in that of `COc1ncccc1CNC(=O)CCc1c(C)nn(C)c1C`, 580 s. In the case of `O=C(CN1C(=O)C(C(=O)N2CCCCCC2)Sc2ccccc21)N1CCN(c2ccccc2)CC1` (stereo not drawn) it was 663 s; in that of `COCCN1C(=O)[C@H]2CN(Cc3ccc(Cl)c(F)c3)C[C@H]2C1=O`, 638 s. The result for `Cc1noc(C2CN(C(=O)Nc3cccc(Cl)c3F)CC23CCOCC3)n1` (stereo not drawn) reads 783 s. In turn, `O=C(c1ccsc1)N1CCN(c2nnc3c(Cl)cccn23)CC1` came in with an RP-LC retention time of 635 s. In the case of `CCn1ccc2sc(C)c(C(=O)NCc3ccc(OC)cc3)c2c1=O` it was 786 s; in that of `Cc1ccc(NC(=O)CN2C(=O)C3CCCCN3c3ccc(S(=O)(=O)N(C)C)cc32)nc1` (stereo not drawn), 828 s. The result for `CCN1C(=O)c2cc(S(=O)(=O)NCc3ccc(F)cc3)ccc2Oc2cccnc21` reads 1060 s. The result for `CCN(CC)c1ccc(-c2noc(CN3CCN(c4ccccn4)CC3)n2)cn1` reads 575 s; that for `Cc1cc2c(=O)n(CC(=O)Nc3ccc(F)cc3C)ccc2s1`, 762 s; that for `CCn1c(C(=O)NCCN2CCCC2)c(N2CCCC2=O)c2cc(OC)ccc21`, 624 s. Compound `CNC(=O)c1n[nH]c2c1CC(C(C)(C)C)CC2` (stereo not drawn) gave an RP-LC retention time of 786 s. In the case of `CCCN(CCC)C1CCc2cc(O)c(O)cc2C1` (stereo not drawn) it was 641 s.

Regarding `Cc1cn(C)c(CC(=O)NC2CCCCCC2)c1C(=O)O`, the RP-LC retention time is 765 s. `Cc1ccc(N2CCC(C(=O)Nc3ccc4c(c3)Cc3ccccc3-4)CC2)nn1` came in with an RP-LC retention time of 608 s. In turn, `Cc1cc(C)n(-c2ccc(N3CCC(C(=O)NCc4ccc5c(c4)OCO5)CC3)nn2)n1` returned an RP-LC retention time of 642 s. In turn, `Cc1ccc(-n2c(N3CCC(C(=O)NCCC(C)C)CC3)nc3ccsc3c2=O)cc1` returned an RP-LC retention time of 890 s. The result for `COc1ccc(NC(=O)c2cn(-c3ccc(C#N)cc3)cn2)cc1OC` reads 683 s; that for `COc1ccccc1OCC(=O)NCC1CCOCC1`, 675 s; that for `CCCCCNC(=O)C1CCN(c2nccnc2Sc2ccc(C)cc2)CC1`, 1100 s. The compound `COc1ccc(-c2c(C(=O)NCCN3CCOCC3)nc3ccccn23)cc1` registered an RP-LC retention time of 601 s. The result for `Cc1cccc(NC(=O)N2CCc3nc[nH]c3C2)c1C` reads 565 s; that for `Cn1c(-c2cccc(C(=O)NCc3cc(F)ccc3F)c2)nc2cccnc21`, 726 s; that for `Cc1nnc2cc(N3CCN(C(=O)Nc4ccc(F)c(Cl)c4)CC3)cnn12`, 658 s. The compound `CCc1cc(=O)n(CC(=O)Nc2ccc(N(C)C)cc2)c(N2CCOCC2)n1` returned an RP-LC retention time of 587 s. The compound `COc1ccc(CNC(=O)C2CCN(S(C)(=O)=O)c3ccccc3O2)cc1` (stereo not drawn) showed an RP-LC retention time of 810 s. In the case of `CNC(=O)[C@@H]1CN(C(=O)c2cnccn2)C[C@H]1c1n[nH]c(C)n1` it was 539 s; in that of `O=C(CN1CCC2(CC1)N=C(c1ccccc1)C(=O)N2)Nc1cccc(Br)c1`, 687 s; in that of `COC(=O)N1CCN(c2ccc(-c3noc(C(F)(F)F)n3)cn2)CC1`, 904 s. The result for `COCc1c(C(=O)N2CCCC2Cc2noc(C3CCCC3)n2)noc1C` (stereo not drawn) reads 922 s; that for `O=C(Nc1ccccc1)N1[C@H]2CC[C@@H]1c1cncnc1C2`, 651 s; that for `COc1ccc(NC(=O)Cc2csc3nc(-c4cccc(Cl)c4)cn23)cc1`, 889 s. In the case of `Cc1cc(NC(=O)CSc2nnnn2C)sn1` it was 596 s; in that of `Cc1cccc(-c2nnc(C)c(N3CCC4(CC3)OCCO4)n2)c1`, 673 s. For `COC(=O)c1ccc2c(=O)n(-c3cccc(C)c3)c(N3CCSCC3)nc2c1`, the RP-LC retention time was determined as 1110 s. In the case of `Cc1nc(CSc2ncnc3sc4c(c23)CCC4)cs1` it was 1040 s; in that of `CCc1nnc2ccc(-c3noc(-c4ccccc4)n3)cn12`, 906 s; in that of `CCc1nnc(-c2ccc(S(=O)(=O)NC3CCCC3)o2)o1`, 815 s.
